The values below come from patent publication EP4551202B1, “NAPHTHAZARIN DERIVATIVES FOR TREATMENT OF ONYCHOMYCOSIS” (Christian-Albrechts-Universität zu Kiel, priority 2022, dated 2024).

Series [1] has as its system Candida albicans, strain DSM 1386. The series can be described thus: Anti-mycotic activity assay in pathogen suspension (resazurin fluorescence). The format is cell-based. How it is done: (§1) For determining the IC50 of the anti-mycotic activity of compounds, the human pathogen Candida albicans, strain DSM 1386, or clinical isolates of Trichophyton rubrum obtained from patient samples were used.
Candida albicans DSM 1386 was cultivated overnight in medium M186/3 (3.3 % glucose, 0.16 % peptone from soybeans, 0.1% yeast extract, 0.1 % malt extract). Test samples were added in triplicates to a 96-well plate for a final assay concentration of 10 µM and 100 µM of pharmaceutical compounds. 200 µl of the yeast was added to each well after diluting the overnight culture to an optical density (600 nm) of 0.03. […] Handling of the test compounds and well plates took place in a darkened room equipped with red-light LEDs to protect them from green light. Microplates were incubated for 5 h at 28 °C on a shaker at 200 rpm. Subsequently, 10 µl resazurin solution (0.3 mg/ml in phosphate buffer) was added to each well and the microplates were incubated again for 30 min before measuring fluorescence (560/590 nm) using a microplate reader (Tecan Infinite M200, Tecan, Männedorf, Switzerland). Nystatin was used as positive control.
Background: The colour change of resazurin is a common sign of viable cells or microbes.

The test system of series [2] is Trichophyton rubrum I/95 (patient isolate). The series can be described thus: Anti-mycotic activity assay in pathogen suspension (optical density at 600 nm). The format is cell-based. Particulars: light or radiation study, read-out: Tru IC50 with irradiation. The procedure: as §1
Trichophyton rubrum I/95 (patient isolate) was cultivated for 1 week on GPY (0.1% glucose, 0.05% petone, 0.01 yeast extract, 1.5% agar) at 28°C. A suspension of 5x10^4 spores/ml in M186 (1% glucose, 0.5% peptone from soybeans, 0.3% yeast extract, 0.3% malt extract) was prepared and added to each well of a microplate containing one of the pharmaceutical compounds, which were pipetted in triplicates for a final concentration of […] and 100 µM. The wells were irradiated using the custom-made light source with a peak wavelength of 519 nm. Handling of the test compounds and well plates took place in a darkened room equipped with a red-light LED to protect them from green light. After incubation for 72 h at 28 °C and 120 rpm the optical density at 600 nm was measured using the microplate reader Tecan Infinite M200.

Series [3] is described as follows: Migration into hoof plate from lacquer, Raman spectroscopy of cross-sections. The format is in vitro ADME, bovine. As to conditions: 5 days. The procedure: As a further analysis, a bovine hoof plate, 2 mm thickness, was arranged on water-saturated cotton gauze, and pharmaceutical compound was deposited on the opposite surface of the hoof plate. This arrangement was incubated under static conditions at room temperature for 5 days. The pharmaceutical compound was used at 5 wt.-% in a preliminary formulation of 12.5 wt.-% Eudragit RL PO, 60 wt.-% ethanol, 15 wt.-% ethyl acetate, 5 wt.-% butyl acetate, 2.5 wt.-% triacetin, which formulation should mimic the Loceryl lacquer. For comparison, the topic antimycotics amorolfin in Loceryl lacquer and ciclopirox in Ciclopoli were used in parallel.
After the incubation for 5 d, the lacquer compositions were carefully removed and cross-sections from the hoof plates were made. […] This pattern of measurement points, each at a depth greater by 10 µm, up to a depth of at least 100 µm, was used for Raman spectroscopy for presence of pharmaceutical compound.

Series [4] has as its system Trichophyton rubrum I/95 (patient isolates). The series can be described thus: Anti-mycotic activity assay from nail (infected nail model, cow horn membranes). Particulars: for growth of T. rubrum in cow horn membrane: 15 µL/membrane; for diffusion of the compound into the supporting agar: from cow horn membrane, infected nail model. How it is done: For testing the effect of the pharmaceutical compounds in a nail, compounds were applied as a solution of 5 mg/ml or 10 mg/ml in nitrocellulose-based cosmetic nail lacquer, diluted 1: 1 with ethyl acetate, onto cow horn membranes representing nail.
Trichophyton rubrum I/95 (patient isolates) was cultivated for 1-3 weeks on GPY (0.1 % glucose, 0.05 % peptone, 0.01 yeast extract, 1.5 % agar) at 28°C. For the infected nail model, petri dishes with M186 agar (1% glucose, 0.5% peptone from soybeans, 0.3% yeast extract, 0.3% malt extract, 1.5 % agar, supplemented with 100 U/ml penicillin and […]) where inoculated with the pathogen using sterile cotton swabs. Afterwards autoclaved cow horn membranes (in DPBS-buffer solution, 100 µm thick, 8 mm in diameter) where put onto the agar (5 per petri dish) followed by incubation for 48 h at 29 °C. […] The formulations were applied to 15 µL/membrane to the cow horn membranes using an Eppendorf pipette. After incubation for another 24 h four membranes of each type (control, vehicle, 5 mg/ml or 10 mg/ml deoxyshikonin) were transferred onto fresh petri dishes with the surface to which the formulation was applied now facing the agar. […] Afterwards formulations were applied (15 µL/membrane) onto the untreated side of the membranes (facing upwards), they were allowed to dry and were irradiated again for 5 min (2x). The dishes were incubated for 24 h at 29 °C and irradiated again for 5 min (2x). After 7 days of incubation at 29 °C the dishes were evaluated. Anytime handling the compounds and the agar plates after application of the formulations the ambient light was turned off and a red-light LED was used to protect them from any activating light source.

In another series the test system is C. albicans. Described as above. The format is cell-based.
The subject of series [5] is Trichophyton rubrum I/95 (patient isolate). The experiment in a line: Anti-mycotic activity assay in pathogen suspension (optical density at 600 nm). The format is cell-based. As to conditions: light or radiation study; antimycotic activity against Trichophyton rubrum; without irradiation (dark); read-out: Tru IC50 without irradiation.
The nature of series [6]: Comparison test of antimycotic effect upon irradiation. The format is cell-based.
[7] abbreviates: DSM1386, light or radiation study, antimycotic activity against Candida albicans, with irradiation, peak wavelength 519 nm, read-out: Ca IC50 with irradiation.
Where [8] appears, read: antimycotic activity against Trichophyton rubrum, with irradiation, peak wavelength 519 nm.
[9] abbreviates: antimycotic activity against Candida albicans, with irradiation, peak wavelength 519 nm, read-out: Ca IC50 with irradiation.
[10] abbreviates: 5 wt.-% in preliminary Eudragit RL PO lacquer formulation, bovine hoof plate 2 mm, room temperature, one topical application.
The mark [11] stands for this setting: with irradiation at 519 nm, 5 mg/ml or 10 mg/ml in diluted nitrocellulose-based nail lacquer, evaluated after 7 days.
Where [12] appears, read: without irradiation, compound in diluted nitrocellulose-based nail lacquer.
The mark [13] stands for this setting: Candida albicans, DSM1386, light or radiation study, antimycotic activity against Candida albicans, with irradiation, peak wavelength 519 nm, read-out: Ca IC50 with irradiation.

Read-outs that look alike come from different tables or passages of the source.

As a reminder, the IC50 is the concentration that gives 50% inhibition. Take `O=C1C=C(Nc2ccccc2)C(=O)c2c(O)ccc(O)c21` [BJ-49]: the IC50 in series [1] (setting [7]) was 570 nM; in series [2] (setting [8]) it was 352 ± 150 nM.

In the case of `CCCC1=CC(=O)c2c(O)ccc(O)c2C1=O` [BJ-35], the IC50 in series [1] (setting [7]) came out at 599 ± 289 nM; in series [2] (setting [8]), 13 ± 12.2 nM.

With `CCC1=CC(=O)c2c(O)ccc(O)c2C1=O` [BJ-34], the IC50 in series [1] (setting [7]) was found to be 715 ± 209 nM; in series [2] (setting [8]) it was 24.2 ± 20.6 nM.

As for `C[C@@H]1[C@H](O)[C@@H](C)/C=C/C=C/CC/C=C/C=C/C=C/C=C/C(O[C@H]2O[C@H](C)[C@@H](O)[C@H](N)[C@@H]2O)CC2O[C@](O)(CC(O)C(O)CCC(O)CC(O)CC(O)CC(=O)O[C@H]1C)CC(O)C2C(=O)O` (stereo partly shown) [Nystatin, reference compound], the IC50 in series [1] (setting [9]) was determined as 1660 ± 886 nM; in series [1] (antimycotic activity against Candida albicans, without irradiation (dark), read-out: Ca IC50 without irradiation) it was 692 nM. Moreover, in series [1] (under irradiation, believed to be caused by decomposition under irradiation), the “activity under irradiation compared with no irradiation” value is recorded as “lower activity under irradiation”.

For the molecule `NCC(=O)CCC(=O)O` [5-amino laevulinic acid], in series [3] (setting [10]), the “depth of migration into the keratin cross-section” value (“depth” for short) was determined as 30 µm. The “growth of T. rubrum in cow horn membrane” value in series [4] (setting [11]) and in series [4] (setting [12]) was “did not suppress growth” throughout. Moreover, the “growth of C. albicans in cow horn membrane” value (shortened to “growth of C. albicans”) with C. albicans (with irradiation at 519 nm) and with C. albicans (without irradiation) was “did not suppress growth” in each case.

For `CCCCC1=CC(=O)c2c(O)ccc(O)c2C1=O` [BJ-36], the IC50 is 556 ± 355 nM in series [1] (setting [7]) and 1 ± 0.3 nM in series [2] (setting [8]). Moreover, the “depth” value in series [3] (bovine, 5 wt.-%) is given as “more than 70 µm”. The “diffusion of the compound into the supporting agar” value in series [4] is recorded as “without diffusion of the compound into the supporting agar”. Besides, the results for the “growth of T. rubrum in cow horn membrane” value in series [4] (setting [11]) and in series [4] (setting [12]) were “effectively eliminated any growth” and “not effective in suppressing growth”, respectively. In addition, the “growth of C. albicans” value in the series with C. albicans (with irradiation at 519 nm) is recorded as “effectively eliminated any growth”; in the series on C. albicans (without irradiation), “not effective in suppressing growth”.

`CC(C)=CCC(O)C1=CC(=O)c2c(O)ccc(O)c2C1=O` (stereo not shown) [Shikonin/ Alkannin]: the IC50 in series [1] (setting [13]) was 1480 nM; in series [2] (setting [8]) it was 781 ± 407 nM; in series [5] it was 10500 ± 6920 nM.

Regarding `CCC(C)(C)c1ccc(CC(C)CN2C[C@@H](C)O[C@@H](C)C2)cc1` (stereo partly shown) [amorolfin], the “depth” value in series [3] (commercial lacquers (amorolfin in Loceryl lacquer, ciclopirox in Ciclopoli), bovine hoof plate 2 mm, room temperature) is given as “could not be detected inside the keratin cross-section”.

Take `CC(C)=CCCC1=CC(=O)c2c(O)ccc(O)c2C1=O` [DOS, Deoxyshikonin]: the 50% inhibitory concentration (IC50) in series [1] (setting [13]) turned out to be 213 ± 54.7 nM; in series [1] (setting [9]), 213 ± 55 nM; in series [2] (setting [8]), 32.2 ± 17.4 nM. In series [3] (setting [10]), the “depth” value is “more than 50 µm”. Besides, the “growth of T. rubrum in cow horn membrane” value in series [4] (setting [11]) was “effectively suppressed growth of T. rubrum”; in series [4] (setting [12]), “reduced compared to both controls but not suppressed”.

`CC(C)(C)C1=CC(=O)c2c(O)ccc(O)c2C1=O` [BJ-19]: the half-inhibitory concentration (IC50) in series [1] (setting [7]) was determined as 7650 ± 4480 nM; in series [2] (setting [8]), 244 ± 192 nM.

For `O=C1C=C(c2ccccc2)C(=O)c2c(O)ccc(O)c21` [BJ-39], the IC50 in series [2] (setting [8]) is 2.9 nM.

On to `CN(C)c1ccc2nc3ccc(=[N+](C)C)cc-3sc2c1` [methylene blue, reference compound], for which the “depth” value in series [3] (bovine, 5 wt.-%) was 50 µm. Moreover, in series [4], the “diffusion of the compound into the supporting agar” value is recorded as “diffusion of methylene blue into the supporting agar”. Besides, the “growth of T. rubrum in cow horn membrane” value in series [4] (setting [11]) and in series [4] (setting [12]) was “did not suppress growth” in each case. For the same molecule, the “growth of C. albicans” value in the series with C. albicans (with irradiation at 519 nm) and with C. albicans (without irradiation) was “did not suppress growth” in each case.

For the molecule `CN(C)C1=CC(=O)c2c(O)ccc(O)c2C1=O` [BJ-SK-Amin], the values for the IC50 in series [1] (setting [7]), in series [2] (setting [8]) and in series [5] were 1480 nM, 3340 nM and 8140 nM, respectively.

In the case of `CC1=C(C)C(=O)c2c(O)ccc(O)c2C1=O` [BJ-27], the 50% inhibitory concentration (IC50) in series [1] (setting [7]) was determined as 2750 ± 70 nM; in series [2] (setting [8]), 321 ± 212 nM.

In the case of `CC(C)C1=CC(=O)c2c(O)ccc(O)c2C1=O` [BJ-28], the IC50 in series [1] (setting [7]) amounted to 1040 ± 185 nM; in series [2] (setting [8]) it was 42.7 nM.

Regarding `O=C1C=C(O)C(=O)c2ccccc21` [2-hydroxy-1,4-naphthochinone], the “antimycotic effect upon irradiation” value in series [6] is recorded as “essentially no antimycotic effect”.

Turning to `O=C1C=CC(=O)c2c(O)ccc(O)c21` [Naphthazarin], the IC50 in series [1] (Candida albicans, DSM1386, light or radiation study, read-out: Ca IC50 with irradiation) worked out at 632 ± 175 nM; in series [2] (Trichophyton rubrum), 353 ± 237 nM.

For `Cc1cc(C2CCCCC2)n(O)c(=O)c1` [ciclopirox], the “depth” value in series [3] (bovine) is on record as not above 40 µm.

In the case of `CC1=CC(=O)c2c(O)ccc(O)c2C1=O` [BJ-18], the IC50 in series [1] (setting [7]) is 2340 ± 846 nM; in series [1] (DSM1386, light or radiation study, antimycotic activity against Candida albicans, without irradiation (dark), read-out: Ca IC50 without irradiation) it was 10900 ± 4080 nM; in series [2] (setting [8]), 87.6 ± 65.4 nM.
